Assay results reported in patent US20260325533A1, “CDK INHIBITOR COMPOUNDS” (ALEKSIA THERAPEUTICS, INC., priority 2023, published 2026).
Like-named read-outs stand apart in the source and are kept apart here.

Experiments:
Type in all cases: biochemical
CDK1/CCNB1 = CDK1/CCNB1 (Homo sapiens, UniProt P06493); experiment: CDK1 homogeneous time-resolved fluorescence (HTRF) kinase assay; settings: >250 nM; CDK1/CCNB; read-out: CDK1/CCNB IC50 >250 nM
Procedure, shortened: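 CDK1/CCNB1 0.5 nM + cpd, 20 min 23 °C; add 1 mM ATP, 50 nM ULight-4E-BP1 peptide, 60 min 23 °C; stop 10 mM EDTA; 2 nM Eu-Ab, 60 min; HTRF 665 nm. 11-pt half-log, top 10 μM typical; IC50.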

CDK2/CCNE1 = CDK2/CCNE1 (Homo sapiens, UniProt P24941); experiment: CDK2 homogeneous time-resolved fluorescence (HTRF) kinase assay; settings: CDK2/CCNE
Procedure, shortened: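 Compounds were titrated 11-point, half-log from typically 10 μM against 3 nM CDK2/cyclin E1 at 1 mM ATP, with a 20 min enzyme preincubation. Phosphorylation of 50 nM ULight-4E-BP1 peptide over 60 min at 23 °C was detected by europium anti-phospho antibody TR-FRET.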

CDK6/CCND1 = CDK6/CCND1 (Homo sapiens, UniProt Q00534); experiment: CDK6 homogeneous time-resolved fluorescence (HTRF) kinase assay; settings: CDK6/CCND, 1 mM ATP
Chain of CDK6/CCND1 (Q00534 whole entry): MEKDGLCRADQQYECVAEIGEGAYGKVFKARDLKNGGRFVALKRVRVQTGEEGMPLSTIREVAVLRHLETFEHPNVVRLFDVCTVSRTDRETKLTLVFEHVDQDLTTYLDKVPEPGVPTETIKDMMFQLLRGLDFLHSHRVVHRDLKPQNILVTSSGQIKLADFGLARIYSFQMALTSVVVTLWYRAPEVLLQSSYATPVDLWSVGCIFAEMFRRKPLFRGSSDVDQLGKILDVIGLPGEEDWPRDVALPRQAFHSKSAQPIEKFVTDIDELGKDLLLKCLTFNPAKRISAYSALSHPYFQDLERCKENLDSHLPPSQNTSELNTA
Chain of CDK6/CCND1 (P24385 whole entry partner): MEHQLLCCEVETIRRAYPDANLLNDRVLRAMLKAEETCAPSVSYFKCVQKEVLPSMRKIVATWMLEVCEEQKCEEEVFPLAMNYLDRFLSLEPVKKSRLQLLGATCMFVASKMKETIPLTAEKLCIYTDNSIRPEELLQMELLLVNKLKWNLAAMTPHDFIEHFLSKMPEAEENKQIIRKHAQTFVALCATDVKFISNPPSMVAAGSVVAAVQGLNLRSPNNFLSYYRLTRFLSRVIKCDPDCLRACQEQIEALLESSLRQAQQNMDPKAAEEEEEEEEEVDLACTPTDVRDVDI
Procedure, shortened: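 1 nM enzyme, 1 mM ATP, 50 nM ULight-4E-BP1 (Thr37/46) peptide, 1% DMSO; 20 min compound preincubation, 60 min reaction, 23 °C. EDTA stop, 2 nM Eu-anti-phospho-4E-BP1 antibody 60 min. TR-FRET 665 nm (or 665/615 ratio); IC50 from 11-point half-log titration, top 10 μM.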

CDK4/CCND3 = CDK4/CCND3 (Homo sapiens, UniProt P11802); experiment: CDK4 homogeneous time-resolved fluorescence (HTRF) kinase assay; settings: CDK4/CCND
Chain of CDK4/CCND3 (P11802 whole entry): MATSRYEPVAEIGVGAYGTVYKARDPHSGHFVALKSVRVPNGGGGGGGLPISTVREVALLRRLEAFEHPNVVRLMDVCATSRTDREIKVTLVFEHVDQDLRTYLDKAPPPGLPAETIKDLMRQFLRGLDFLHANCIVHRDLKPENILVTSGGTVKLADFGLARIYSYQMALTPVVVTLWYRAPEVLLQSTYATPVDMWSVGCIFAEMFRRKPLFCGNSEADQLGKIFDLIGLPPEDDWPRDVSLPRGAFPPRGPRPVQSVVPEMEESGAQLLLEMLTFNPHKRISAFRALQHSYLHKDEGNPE
Chain of CDK4/CCND3 (P30281 whole entry partner): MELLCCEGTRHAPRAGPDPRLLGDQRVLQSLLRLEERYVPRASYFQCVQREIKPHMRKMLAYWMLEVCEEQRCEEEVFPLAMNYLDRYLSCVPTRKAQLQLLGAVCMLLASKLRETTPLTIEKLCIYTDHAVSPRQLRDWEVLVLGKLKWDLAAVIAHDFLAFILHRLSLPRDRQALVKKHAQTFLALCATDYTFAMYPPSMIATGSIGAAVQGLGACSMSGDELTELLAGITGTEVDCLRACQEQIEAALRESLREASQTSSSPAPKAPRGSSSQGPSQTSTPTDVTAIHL
Procedure, shortened: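 Inhibition of CDK4/CCND3 (1.5 nM) was measured at high ATP (1 mM) using 50 nM ULight-labelled 4E-BP1 Thr37/46 peptide; detection used 2 nM europium anti-phospho antibody after EDTA quench. IC50 values came from 11-point half-log titrations typically starting at 10 μM.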

[1] = <25 nM, read-out: CDK2/CCNE IC50, <25 nM
[2] = >250 nM, read-out: CDK6/CCND IC50, >250 nM
[3] = >250 nM, read-out: CDK4/CCND IC50, >250 nM
[4] = 25-250 nM, read-out: CDK2/CCNE IC50, 25-250 nM
[5] = 25-250 nM, read-out: CDK6/CCND IC50, 25-250 nM
[6] = 25-250 nM, read-out: CDK4/CCND IC50, 25-250 nM

Chain of CDK1/CCNB1 (P06493 whole entry): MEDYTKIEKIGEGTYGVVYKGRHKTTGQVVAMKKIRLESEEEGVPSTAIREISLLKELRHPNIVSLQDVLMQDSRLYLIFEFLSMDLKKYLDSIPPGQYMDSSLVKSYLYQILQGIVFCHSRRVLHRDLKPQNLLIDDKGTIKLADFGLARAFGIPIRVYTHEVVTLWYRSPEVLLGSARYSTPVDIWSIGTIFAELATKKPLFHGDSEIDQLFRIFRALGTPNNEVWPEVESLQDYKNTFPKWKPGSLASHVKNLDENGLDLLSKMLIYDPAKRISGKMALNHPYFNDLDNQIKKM
Chain of CDK1/CCNB1 (P14635 whole entry partner): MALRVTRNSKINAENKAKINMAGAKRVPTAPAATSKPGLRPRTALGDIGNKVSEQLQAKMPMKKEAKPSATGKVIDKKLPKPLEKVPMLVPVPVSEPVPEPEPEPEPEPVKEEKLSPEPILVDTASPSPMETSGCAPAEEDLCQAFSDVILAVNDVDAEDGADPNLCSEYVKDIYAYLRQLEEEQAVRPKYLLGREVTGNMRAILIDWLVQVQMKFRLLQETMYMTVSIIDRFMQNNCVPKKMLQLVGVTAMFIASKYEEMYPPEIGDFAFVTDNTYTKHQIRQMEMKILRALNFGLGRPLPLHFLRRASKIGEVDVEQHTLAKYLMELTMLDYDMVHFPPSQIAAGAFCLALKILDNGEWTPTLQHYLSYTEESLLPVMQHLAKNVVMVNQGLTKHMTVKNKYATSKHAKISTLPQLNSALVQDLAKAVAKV

| IC50 (CDK1/CCNB1) [nM] | IC50 (CDK2/CCNE1; [1]) [nM] | IC50 (CDK6/CCND1; [2]) [nM] | IC50 (CDK4/CCND3; [3]) [nM] | IC50 (CDK2/CCNE1; [4]) [nM] | IC50 (CDK6/CCND1; [5]) [nM] | IC50 (CDK4/CCND3; [6]) [nM] | IC50 (CDK2/CCNE1; >250 nM, read-out: CDK2/CCNE IC50, >250 nM) [nM] | Structure (SMILES) |
| --- | --- | --- | --- | --- | --- | --- | --- | --- |
| > 250 | < 25 | > 250 | > 250 |  |  |  |  | COc1cc(OC)nc(NS(=O)(=O)c2ccc(Nc3cc4c(-c5ccc6c(cnn6CC(C)(C)O)c5C)nccc4cn3)cc2)n1 [Ex 898, N-(4,6-dimethoxypyrimidin-2-yl)-4-((5-(1-(2-hydroxy-2-methylpropyl)-4-methyl-1H-indazol-5-yl)-2,6-naphthyridin-3-yl)amino)benzenesulfonamide] |
| > 250 |  | > 250 | > 250 | 25 to 250 |  |  |  | Cc1cc(C#Cc2nccc3cnc(Nc4ccc(S(C)(=O)=O)cc4)cc23)sn1 [Ex 899, 5-((3-methylisothiazol-5-yl)ethynyl)-N-(4-(methylsulfonyl)phenyl)-2,6-naphthyridin-3-amine] |
| > 250 |  | > 250 | > 250 | 25 to 250 |  |  |  | CS(=O)(=O)c1ccc(Nc2cc3c(C#Cc4ccc(C#N)s4)nccc3cn2)cc1 [Ex 900, 5-((7-((4-(methylsulfonyl)phenyl)amino)-2,6-naphthyridin-1-yl)ethynyl)thiophene-2-carbonitrile] |
| > 250 |  | > 250 | > 250 | 25 to 250 |  |  |  | Cc1cnc(C#Cc2nccc3cnc(Nc4ccc(S(C)(=O)=O)cc4)cc23)[nH]1 [Ex 901, 5-((5-methyl-1H-imidazol-2-yl)ethynyl)-N-(4-(methylsulfonyl)phenyl)-2,6-naphthyridin-3-amine] |
| > 250 |  | > 250 | > 250 | 25 to 250 |  |  |  | CC#Cc1nccc2cnc(Nc3ccc(S(=O)(=O)Nc4nccc(C)n4)cc3)cc12 [Ex 905, N-(4-methylpyrimidin-2-yl)-4-((5-(prop-1-yn-1-yl)-2,6-naphthyridin-3-yl)amino)benzenesulfonamide] |
| > 250 | < 25 | > 250 | > 250 |  |  |  |  | COc1cnc(NS(=O)(=O)c2ccc(Nc3cc4c(-c5ccc6c(cnn6CC(C)(C)O)c5C)nccc4cn3)cc2)nc1 [Ex 906, 4-((5-(1-(2-hydroxy-2-methylpropyl)-4-methyl-1H-indazol-5-yl)-2,6-naphthyridin-3-yl)amino)-N-(5-methoxypyrimidin-2-yl)benzenesulfonamide] |
| > 250 | < 25 | > 250 | > 250 |  |  |  |  | Cc1c(-c2nccc3cnc(Nc4ccc(S(=O)(=O)Nc5nccc(C(F)(F)F)n5)cc4)cc23)ccc2c1cnn2CC(C)(C)O [Ex 907, 4-((5-(1-(2-hydroxy-2-methylpropyl)-4-methyl-1H-indazol-5-yl)-2,6-naphthyridin-3-yl)amino)-N-(4-(trifluoromethyl)pyrimidin-2-yl)benzenesulfonamide] |
| > 250 | < 25 |  |  |  | 25 to 250 | 25 to 250 |  | Cc1ccnc(NS(=O)(=O)c2ccc(Nc3cc4c(-c5ccc6c(cnn6CC(C)(C)O)c5C)nccc4cn3)cc2)n1 [Ex 908, 4-((5-(1-(2-hydroxy-2-methylpropyl)-4-methyl-1H-indazol-5-yl)-2,6-naphthyridin-3-yl)amino)-N-(4-methylpyrimidin-2-yl)benzenesulfonamide] |
| > 250 |  | > 250 | > 250 | 25 to 250 |  |  |  | COc1nccc(C#Cc2nccc3cnc(Nc4ccc(S(C)(=O)=O)cc4)cc23)c1C [Ex 909, 5-((2-methoxy-3-methylpyridin-4-yl)ethynyl)-N-(4-(methylsulfonyl)phenyl)-2,6-naphthyridin-3-amine] |
| > 250 |  | > 250 | > 250 | 25 to 250 |  |  |  | COc1cc(C)c(C#Cc2nccc3cnc(Nc4ccc(S(C)(=O)=O)cc4)cc23)cn1 [Ex 910, 5-((6-methoxy-4-methylpyridin-3-yl)ethynyl)-N-(4-(methylsulfonyl)phenyl)-2,6-naphthyridin-3-amine] |
| > 250 |  | > 250 | > 250 | 25 to 250 |  |  |  | CS(=O)(=O)c1ccc(Nc2cc3c(C#Cc4cc(O)cc(F)c4)nccc3cn2)cc1 [Ex 911, 3-fluoro-5-((7-((4-(methylsulfonyl)phenyl)amino)-2,6-naphthyridin-1-yl)ethynyl)phenol] |
| > 250 |  | > 250 | > 250 |  |  |  | > 250 | COc1cc(C#Cc2nccc3cnc(Nc4ccc(S(C)(=O)=O)cc4)cc23)ccc1F [Ex 912, 5-((4-fluoro-3-methoxyphenyl)ethynyl)-N-(4-(methylsulfonyl)phenyl)-2,6-naphthyridin-3-amine] |
| > 250 |  | > 250 | > 250 | 25 to 250 |  |  |  | CS(=O)(=O)c1ccc(Nc2cc3c(C#Cc4cc(C(=O)O)c(N)cc4F)nccc3cn2)cc1 [Ex 913, 2-amino-4-fluoro-5-((7-((4-(methylsulfonyl)phenyl)amino)-2,6-naphthyridin-1-yl)ethynyl)benzoic acid] |
| > 250 | < 25 |  |  |  | 25 to 250 | 25 to 250 |  | Cc1c(-c2nccc3cnc(Nc4ccc5c(c4)CCCS5(=O)=O)cc23)ccc2c1cnn2CC(C)(C)O [Ex 914, 6-((5-(1-(2-hydroxy-2-methylpropyl)-4-methyl-1H-indazol-5-yl)-2,6-naphthyridin-3-yl)amino)thiochromane 1,1-dioxide] |
| > 250 | < 25 |  |  |  | 25 to 250 | 25 to 250 |  | Cc1c(-c2nccc3cnc(Nc4ccc5c(c4)CCS5(=O)=O)cc23)ccc2c1cnn2CC(C)(C)O [Ex 915, 5-((5-(1-(2-hydroxy-2-methylpropyl)-4-methyl-1H-indazol-5-yl)-2,6-naphthyridin-3-yl)amino)-2,3-dihydrobenzo[b]thiophene 1,1-dioxide] |
| > 250 |  | > 250 | > 250 | 25 to 250 |  |  |  | Cc1c(-c2nccc3cnc(Nc4cccc5ccccc45)cc23)ccc2c1cnn2CC(C)(C)O [Ex 916, 2-methyl-1-(4-methyl-5-(7-(naphthalen-1-ylamino)-2,6-naphthyridin-1-yl)-1H-indazol-1-yl)propan-2-ol] |
| > 250 |  | > 250 | > 250 | 25 to 250 |  |  |  | N#Cc1ccc(C#Cc2nccc3cnc(Nc4cnc(O)c(N5CCNCC5)c4)cc23)cc1 [Ex 917, 4-((7-((6-hydroxy-5-(piperazin-1-yl)pyridin-3-yl)amino)-2,6-naphthyridin-1-yl)ethynyl)benzonitrile] |
| > 250 |  | > 250 | > 250 | 25 to 250 |  |  |  | Cc1c(-c2nccc3cnc(Nc4ccc(S(C)(=O)=O)c(N5CCN(CCO)CC5)c4)cc23)ccc2c1cnn2CC(C)(C)O [Ex 919, 1-(5-(7-((3-(4-(2-hydroxyethyl)piperazin-1-yl)-4-(methylsulfonyl)phenyl)amino)-2,6-naphthyridin-1-yl)-4-methyl-1H-indazol-1-yl)-2-methylpropan-2-ol] |
| > 250 |  | > 250 | > 250 | 25 to 250 |  |  |  | N#Cc1ccc(C#Cc2nccc3cnc(Nc4cnc(O)c(N5CCN(CCO)CC5)c4)cc23)cc1 [Ex 920, 4-((7-((6-hydroxy-5-(4-(2-hydroxyethyl)piperazin-1-yl)pyridin-3-yl)amino)-2,6-naphthyridin-1-yl)ethynyl)benzonitrile] |
